The target of this experiment is Active Human ERK2 (hERK2) (Homo sapiens (Human), UniProt P28482). Briefly: Active Human ERK2 (hERK2) Activity Assay (IMAP-FP). Type of experiment: biochemical. An outline of the steps: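 Reaction contains 0.5 nM activated hERK2, 900 nM unlabeled plus 80 nM labeled peptide and 30 μM ATP, run 60 min. Quenched with IMAP binding beads in buffer with 24 mM NaCl; fluorescence polarization read after 60 min binding equilibration.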

[1] abbreviates: phosphorylated active hERK2, 30 μM ATP, average, read-out: ERK 2 Human average IC50.
The mark [2] stands for this setting: read-out: AERK2 IC50 (Active human ERK2 Activity Assay).

Each structure is given as a SMILES string. Read-outs that look alike come from different tables or passages of the source.

Active Human ERK2 (hERK2), sequence (P28482 whole entry): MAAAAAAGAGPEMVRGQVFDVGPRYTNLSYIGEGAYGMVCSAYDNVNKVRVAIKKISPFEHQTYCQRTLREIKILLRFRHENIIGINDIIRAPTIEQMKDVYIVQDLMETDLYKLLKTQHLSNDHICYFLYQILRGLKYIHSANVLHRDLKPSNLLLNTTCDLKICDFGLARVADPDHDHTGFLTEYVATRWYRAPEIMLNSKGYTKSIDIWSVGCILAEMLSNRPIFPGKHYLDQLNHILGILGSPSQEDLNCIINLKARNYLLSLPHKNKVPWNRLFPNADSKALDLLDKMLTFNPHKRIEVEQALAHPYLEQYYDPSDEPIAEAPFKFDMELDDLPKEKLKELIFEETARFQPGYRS

A word on the IC50: it is the concentration that gives 50% inhibition. Consider `C[C@@H](NC(=O)Nc1cc2[nH]nc(CS(C)(=O)=O)c2cn1)c1ccccc1` [Example 560], for which the IC50 under setting [1] came out at 81.7 nM.

For `Cc1cc(-c2n[nH]c3cc(NC(=O)NCc4ccc(C(F)(F)F)cc4)ncc23)ccn1` [Example 54, 1-[3-(2-methylpyridin-4-yl)-1H-pyrazolo[4,3-c]pyridin-6-yl]-3-[4-(trifluoromethyl)-benzyl]urea], the half-maximal inhibitory concentration (IC50) under setting [1] was determined as 6.52 nM.

Regarding `Cc1cc(-c2n[nH]c3cc(NC(=O)NCc4cccc(NS(C)(=O)=O)c4)ncc23)ccn1` [Example 366], the half-maximal inhibitory concentration (IC50) under setting [1] came out at 0.34 nM.

Take `COCCN(C)c1ncc(-c2n[nH]c3cc(NC(=O)N[C@H](C)c4ccccc4)ncc23)cn1` [Example 293]: under setting [1], the half-inhibitory concentration (IC50) came out at 24.3 nM.

For `N#Cc1cccc(-c2n[nH]c3cc(NC(=O)NCc4ccc(F)cc4)ncc23)c1` [Example 673], the IC50 under setting [1] was 5.41 nM.

For the compound `CCn1cc(CNC(=O)Nc2cc3[nH]nc(-c4ccnc(C)c4)c3cn2)cn1` [Example 471], the IC50 under setting [1] was determined as 10.2 nM.

As to `Cc1cc(-c2n[nH]c3cc(NC(=O)NC4CC(=O)Nc5ccccc54)ncc23)ccn1` (stereo not drawn) [Example 407], the IC50 under setting [1] was 5.72 nM.

With `Cc1ccc2nc(CNC(=O)Nc3cc4[nH]nc(-c5ccnc(C)c5)c4cn3)cn2c1` [Example 391], under setting [1], the IC50 was 22.2 nM.

Take `Cc1cc(-c2n[nH]c3cc(NC(=O)NCc4ccc[n+]([O-])c4)ncc23)ccn1` [Example 508]: the IC50 under setting [1] stood at 11.6 nM.

Take `Cc1cc(-c2n[nH]c3cc(NC(=O)NCc4csc5ccccc45)ncc23)ccn1` [Example 502]: the IC50 under setting [1] stood at 1.31 nM.

Turning to `Cc1cc(-c2n[nH]c3cc(NC(=O)NCc4ncco4)ncc23)ccn1` [Example 433], the IC50 under setting [1] was 2.97 nM.

`COC(=O)[C@@H](NC(=O)Nc1cc2[nH]nc(-c3ccnc(C)c3)c2cn1)C(C)C` [Example 460]: under setting [1], the 50% inhibitory concentration (IC50) was found to be 160 nM.

For `Cc1cc(-c2n[nH]c3cc(NC(=O)NCc4ccsc4)ncc23)ccn1` [Example 475], the half-maximal inhibitory concentration (IC50) under setting [1] was found to be 0.385 nM.

On to `Cc1cc(-c2n[nH]c3cc(NC(=O)NCCc4nc5ccccc5n4C)ncc23)ccn1` [Example 382], for which the half-inhibitory concentration (IC50) under setting [1] was found to be 6.26 nM.

Take `CCC(C)C(NC(=O)Nc1cc2[nH]nc(-c3ccnc(C)c3)c2cn1)c1ccc(Cl)cc1` (stereo not drawn) [Example 404]: under setting [1], the IC50 is 11.1 nM.

Take `CCNC(=O)Nc1cc2[nH]nc(C3CC3)c2cn1` [Example 157]: the half-inhibitory concentration (IC50) under setting [1] was 253 nM.

For the compound `Cc1cc(-c2n[nH]c3cc(NC(=O)NCc4ncn[nH]4)ncc23)ccn1` [Example 422], the 50% inhibitory concentration (IC50) under setting [1] was 5.42 nM.

Take `Cc1cc(-c2n[nH]c3cc(NC(=O)NC4CCCC(O)C4)ncc23)ccn1` (stereo not drawn) [Example 380]: under setting [1], the half-inhibitory concentration (IC50) amounted to 6.18 nM.

Take `Cc1cc(-c2n[nH]c3cc(NC(=O)NCc4nc(C)cs4)ncc23)ccn1` [Example 477]: under setting [1], the IC50 was determined as 2.61 nM.

As to `C[C@@H](NC(=O)Nc1cc2[nH]nc(-c3ccn4ncnc4c3)c2cn1)c1ccccc1` [Example 294], the concentration for half-maximal inhibition (IC50) under setting [1] came out at 0.665 nM.

`COCCNC(=O)c1n[nH]c2cc(NC(=O)N[C@H](C)c3ccccc3)ncc12` [Example 116, N-(2-methoxyethyl)-6-({[(1R)-1-phenylethyl]carbamoyl}amino)-1H-pyrazolo[4,3-c]pyridine-3-carboxamide]: under setting [1], the concentration for half-maximal inhibition (IC50) came to 10.7 nM.

Regarding `Cc1nc2ccc(-c3n[nH]c4cc(NC(=O)N[C@H](C)c5ccccc5)ncc34)cc2s1` [Example 87, 1-[3-(2-methyl-1,3-benzothiazol-6-yl)-1H-pyrazolo[4,3-c]pyridin-6-yl]-3-[(1R)-1-phenylethyl]urea], the half-inhibitory concentration (IC50) was 0.748 nM under setting [1] and 0.2 to 1.7 nM under setting [2].

Take `CCC(NC(=O)Nc1cc2[nH]nc(-c3ccnc(C)c3)c2cn1)c1ccccn1` (stereo not drawn) [Example 347]: the 50% inhibitory concentration (IC50) under setting [1] amounted to 1.34 nM.

For the compound `Cc1cc(-c2n[nH]c3cc(NC(=O)NCc4ncc(F)cc4Cl)ncc23)ccn1` [Example 517], the concentration for half-maximal inhibition (IC50) under setting [1] was 0.761 nM.

Turning to `C[C@@H](NC(=O)Nc1cc2[nH]nc(-c3ccc4nn(C)cc4c3)c2cn1)c1ccc(Cl)cc1` [Example 65, 1-[(1R)-1-(4-chlorophenyl)ethyl]-3-[3-(2-methyl-2H-indazol-5-yl)-1H-pyrazolo[4,3-c]pyridin-6-yl]urea], the concentration for half-maximal inhibition (IC50) reads like this: under setting [1], 0.562 nM; under setting [2], 0.2 to 1.7 nM.

As to `O=C(Nc1cc2[nH]nc(-c3ccc(F)cc3)c2cn1)NC1CCOC1` (stereo not drawn) [Example 609], under setting [1], the 50% inhibitory concentration (IC50) worked out at 5.83 nM.

As to `COC[C@@H](NC(=O)Nc1ncc2c(-c3ccncc3)n[nH]c2c1F)c1ccccc1` [Example 547], the IC50 under setting [1] came out at 0.184 nM.

As for `CC(F)(F)c1n[nH]c2cc(NC(=O)NCc3ccc(F)cc3)ncc12` [Example 668], under setting [1], the half-maximal inhibitory concentration (IC50) turned out to be 647 nM.

Regarding `COCCNC(=O)Nc1cc2[nH]nc(-c3ccc4nn(C)cc4c3)c2cn1` [Example 626], the concentration for half-maximal inhibition (IC50) under setting [1] is 0.8 nM.

Consider `Cc1cc(-c2n[nH]c3cc(NC(=O)NCC4CNC4)ncc23)ccn1` [Example 586], for which, under setting [1], the IC50 came to 1.3 nM.

`Cc1cc(-c2n[nH]c3cc(NC(=O)N[C@H]4CN(C)C[C@@H]4F)ncc23)ccn1` [Example 328, 1-((3S,4S)-4-fluoro-1-methylpyrrolidin-3-yl)-3-(3-(2-methylpyridin-4-yl)-1H-pyrazolo[4,3-c]pyridin-6-yl)urea]: the IC50 under setting [1] amounted to 1.57 nM.

Turning to `C[C@@H](NC(=O)Nc1cc2[nH]nc(-c3cncc(F)c3)c2cn1)c1ccc(F)cc1` [Example 664], the concentration for half-maximal inhibition (IC50) under setting [1] amounted to 2.49 nM.

As for `CO[C@@H](C)CNC(=O)Nc1cc2[nH]nc(-c3ccnc(C)c3)c2cn1` [Example 597], the 50% inhibitory concentration (IC50) under setting [1] was 0.945 nM.

`Cc1cc(-c2n[nH]c3cc(NC(=O)NCCOC(C)C)ncc23)ccn1` [Example 451]: the IC50 under setting [1] came to 2.14 nM.

With `Cc1cc(-c2n[nH]c3cc(NC(=O)NCCC4COc5ccccc5O4)ncc23)ccn1` (stereo not drawn) [Example 373], the IC50 under setting [1] is 1.07 nM.

In the case of `C[C@@H](NC(=O)Nc1cc2[nH]nc(-c3ccc(=O)n(C)c3)c2cn1)c1ccc(F)cc1` [Example 71, 1-[(1R)-1-(4-fluorophenyl)ethyl]-3-[3-(1-methyl-6-oxo-1,6-dihydropyridin-3-yl)-1H-pyrazolo[4,3-c]pyridin-6-yl]urea], the concentration for half-maximal inhibition (IC50) runs as follows: under setting [1], 0.159 nM; under setting [2], 0.2 to 1.7 nM.

Regarding `Cc1cc(-c2n[nH]c3cc(NC(=O)NC4CCCC(Oc5cccc(F)c5)C4)ncc23)ccn1` (stereo not drawn) [Example 658], under setting [1], the IC50 is 66.9 nM.

On to `Cc1cc(-c2n[nH]c3cc(NC(=O)NCc4ncccc4C)ncc23)ccn1` [Example 480], for which the IC50 under setting [1] was found to be 1.22 nM.

Take `Cc1cc(-c2n[nH]c3cc(NC(=O)NC(C4CC4)C(F)(F)F)ncc23)ccn1` (stereo not drawn) [Example 41, 1-(1-cyclopropyl-2,2,2-trifluoroethyl)-3-[3-(2-methylpyridin-4-yl)-1H-pyrazolo[4,3-c]pyridin-6-yl]urea]: under setting [1], the concentration for half-maximal inhibition (IC50) is 4.48 nM.

With `Cc1cc(-c2n[nH]c3cc(NC(=O)NCc4cscn4)ncc23)ccn1` [Example 432], the concentration for half-maximal inhibition (IC50) under setting [1] is 0.745 nM.

On to `COc1cccc(F)c1CN1CCC[C@@H](NC(=O)Nc2cc3[nH]nc(-c4ccc(F)cc4)c3cn2)C1` [Example 654], for which the half-inhibitory concentration (IC50) under setting [1] came out at 2.2 nM.

Consider `Cc1cc(-c2n[nH]c3cc(NC(=O)NC[C@@H]4COCCO4)ncc23)ccn1` [Example 550], for which the IC50 under setting [1] amounted to 2.43 nM.

In the case of `Cc1cc(-c2n[nH]c3cc(NC(=O)N[C@H](C)Cc4ccccc4)ncc23)ccn1` [Example 606], under setting [1], the concentration for half-maximal inhibition (IC50) worked out at 3.42 nM.

As to `Cc1cc(-c2n[nH]c3cc(NC(=O)N[C@H](c4ccccc4)[C@H]4CCCO4)ncc23)ccn1` [Example 551], the IC50 under setting [1] came to 41.2 nM.

With `Cc1cc(-c2n[nH]c3cc(NC(=O)NCc4ccccc4OCC(F)F)ncc23)ccn1` [Example 525], under setting [1], the IC50 stood at 0.358 nM.

Consider `Cc1cc(-c2n[nH]c3cc(NC(=O)NC(c4ccccc4)C(F)F)ncc23)ccn1` (stereo not drawn) [Example 379], for which the concentration for half-maximal inhibition (IC50) under setting [1] is 1.51 nM.

As for `COCCNC(=O)Nc1cc2[nH]nc(-c3ccc(C#N)cc3)c2cn1` [Example 624, 1-[3-(4-Cyanophenyl)-1H-pyrazolo[4,3-c]pyridin-6-yl]-3-(2-methoxyethyl)urea], under setting [1], the IC50 came out at 4.38 nM.

On to `COC[C@@H](NC(=O)Nc1cc2[nH]nc(-c3ccnc(C)c3)c2cn1)c1ccccn1` [Example 416], for which, under setting [1], the IC50 is 0.78 nM.

As to `Cc1cc(-c2n[nH]c3cc(NC(=O)N[C@H]4CCN(CC(F)(F)F)C4)ncc23)ccn1` [Example 327], under setting [1], the concentration for half-maximal inhibition (IC50) was found to be 0.448 nM.

In the case of `O=C(Nc1ncc2c(-c3ccncc3)n[nH]c2c1F)N[C@H](CO)c1ccccc1` [Example 548], under setting [1], the 50% inhibitory concentration (IC50) came out at 0.315 nM.

For the compound `Cc1cc(-c2n[nH]c3cc(NC(=O)NCCF)ncc23)ccn1` [Example 199], the IC50 under setting [1] stood at 4.86 nM.

`CCCNC(=O)Nc1cc2[nH]nc(-c3ccnc(C)c3)c2cn1` [Example 572]: the 50% inhibitory concentration (IC50) under setting [1] was determined as 1.62 nM.

In the case of `COc1ncccc1CNC(=O)Nc1cc2[nH]nc(-c3ccnc(C)c3)c2cn1` [Example 495], the half-inhibitory concentration (IC50) under setting [1] is 0.608 nM.

In the case of `Cc1cc(-c2n[nH]c3cc(NC(=O)NC(C)c4cscn4)ncc23)ccn1` (stereo not drawn) [Example 496], under setting [1], the half-maximal inhibitory concentration (IC50) was 1.41 nM.

On to `Cc1cc(-c2n[nH]c3cc(NC(=O)NC(C)(C)c4ccccn4)ncc23)ccn1` [Example 357], for which the IC50 under setting [1] came to 106 nM.

Turning to `NC(=O)Nc1cc2[nH]nc(-c3ccc(F)cc3)c2cn1` [Example 34, 1-(3-(4-fluorophenyl)-1H-pyrazolo[4,3-c]pyridin-6-yl)urea], the IC50 under setting [1] came to 1.68 nM and the IC50 under setting [2] was in the range of 0.2 to 1.7 nM.

In the case of `COC[C@@H](NC(=O)Nc1cc2[nH]nc(-c3ccc(-n4ccnn4)cc3)c2cn1)c1ccc(F)cc1` [Example 307], the IC50 under setting [1] was 1.75 nM.

With `Cc1cc(-c2n[nH]c3cc(NC(=O)NCc4ccno4)ncc23)ccn1` [Example 435], the 50% inhibitory concentration (IC50) under setting [1] was found to be 1.08 nM.

On to `C[C@@H](NC(=O)Nc1cc2[nH]nc(-c3cc[n+]([O-])cc3)c2cn1)c1ccccc1` [Example 93, 1-[3-(1-oxidopyridin-4-yl)-1H-pyrazolo[4,3-c]pyridin-6-yl]-3-[(1R)-1-phenylethyl]urea], for which the IC50 is 0.383 nM under setting [1] and 0.2 to 1.7 nM under setting [2].

Regarding `Cc1cc(-c2n[nH]c3cc(NC(=O)NCc4cccc(F)c4)ncc23)ccn1` [Example 53, 1-(3-fluorobenzyl)-3-[3-(2-methylpyridin-4-yl)-1H-pyrazolo[4,3-c]pyridin-6-yl]urea], the IC50 under setting [1] was found to be 0.245 nM and the 50% inhibitory concentration (IC50) under setting [2] fell in the range of 0.2 to 1.7 nM.

For the origin of these results see patent US9023865B2, “Compounds that are ERK inhibitors” (Merck Sharp & Dohme Corp., priority 2011, dated 2015).
